Source: patent US5698529A, “Chemotherapeutic compositions” (Supratek Pharma, Inc., priority 1996, dated 1997)
≈ marks a conversion by molar mass, not a printed value. Read-outs that look alike come from different tables or passages of the source.

Legend:
[1] = test system: SKVO3 cells; assay: cells; type: cell-based; conditions: Homo sapiens
Source text: (§1) The antineoplastic agent vinblastine is incorporated into the block copolymer mixture described in Example 3.
(§2) The antineoplastic agent mitomycin C is incorporated into the block copolymer mixture described in Example 3.
(§3) The antineoplastic agent methotrexate is incorporated into the block copolymer mixture described in Example 3.
(§4) The antineoplastic agent daunorubicin is incorporated into the block copolymer mixture described in Example 3.

[2] = test system: SKVLB cells; assay: cells; type: cell-based; conditions: Homo sapiens
Source text: as §1, §2, §3, §4

[3] = SKVO3, drug-sensitive, read-out: IC50

`CN(Cc1cnc2nc(N)nc(N)c2n1)c1ccc(C(=O)N[C@@H](CCC(=O)O)C(=O)O)cc1` [free methotrexate, methotrexate] was tested, and the IC50 [1, 3] was 1.09 µg/mL (≈ 2.4 µM).
Work on `CC[C@]1(O)C[C@@H]2CN(CCc3c([nH]c4ccccc34)[C@@](C(=O)OC)(c3cc4c(cc3OC)N(C)[C@H]3[C@@](O)(C(=O)OC)[C@H](OC(C)=O)[C@]5(CC)C=CCN6CC[C@]43[C@@H]65)C2)C1` [free vinblastine, vinblastine] yielded an IC50 [2] of 0.615 µg/mL (≈ 0.758 µM) and an IC50 [1, 3] of 0.095 µg/mL (≈ 0.117 µM).
With `CO[C@@]12[C@H](COC(N)=O)C3=C(C(=O)C(C)=C(N)C3=O)N1C[C@@H]1N[C@@H]12` [free mitomycin, mitomycin C] the IC50 [2] was 1.12 µg/mL (≈ 3.35 µM) and the IC50 [1] was 0.32 µg/mL (≈ 0.957 µM).
